According to PubChem BioAssay (NCI):
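48-hour exposure; five concentrations; linearly interpolated endpoints. GI50 is the concentration that inhibits growth by half. Definition used: TGI = concentration required for complete inhibition of growth.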

How the values were obtained:
Assay in all cases: NCI tumour cell line growth inhibition, 48 h
[1] = system: DMS 114 small cell lung
[2] = system: SNB-78 CNS
[3] = system: HOP-18 NSCLC
[4] = system: LXFL 529 NSCLC
[5] = system: XF 498 CNS
[6] = system: RXF-631 renal
[7] = system: MDA-N
[8] = system: P388 leukemia
[9] = system: P388/ADR leukemia
[10] = system: SN12K1 renal

Row | SMILES | TGI [1] | TGI [2] | TGI [3] | TGI [4] | TGI [5] | TGI [6] | other results
1 | CCN(CC)C(=O)CNC(=O)OC(C)(C)C | > 100 µM | > 100 µM | – | – | – | – | –
2 | COc1cc([C@@H]2c3cc4c(cc3[C@@H](NCc3ccc(C#N)cc3)C3COC(=O)[C@@H]32)OCO4)cc(OC)c1O (stereo partly specified) | 4.98 µM | 53.2 µM | > 100 µM | 50.2 µM | 2.85 µM | – | –
3 | Cc1[nH]c2ccccc2c1C1CC(=O)NC1=O (stereo unspecified) | > 100 µM | > 100 µM | – | – | – | – | –
4 | CCC(O)(c1ccc(OC)cc1)C(c1ccc(OCc2ccccc2)cc1)c1ccc(OCc2ccccc2)cc1 (stereo unspecified) | > 100 µM | > 100 µM | – | > 100 µM | > 100 µM | > 100 µM | –
5 | CC(C(=O)c1ccccc1)C1(O)C(=O)Nc2ccccc21 (stereo unspecified) | > 100 µM | > 100 µM | > 100 µM | – | – | > 100 µM | –
6 | C/C(=N\NS(=O)(=O)c1ccc(C)cc1)c1c(O)cc(C)oc1=O | – | > 100 µM | > 100 µM | > 100 µM | – | – | –
7 | N#Cc1nn(C2OC(COC(=O)c3ccccc3)C(OC(=O)c3ccccc3)C2OC(=O)c2ccccc2)c2nc[nH]c(=O)c12 (stereo unspecified) | – | – | – | – | – | – | TGI [7]: > 100 µM
8 | C[C@]12CC(C#N)C(=O)C(O)=C1CC[C@@H]1C2CC[C@@]2(C)C1CC[C@@H]2O (stereo partly specified) | > 100 µM | > 100 µM | – | > 100 µM | > 100 µM | – | –
9 | NC1=NC(c2ccccc2)CC(c2cc(Cl)cc(Br)c2O)=N1 (stereo unspecified) | 27.1 µM | 47.7 µM | 37.4 µM | 31.3 µM | 33.9 µM | 39.8 µM | TGI [8]: > 20.7 µM; TGI [9]: > 27.8 µM; TGI [10]: 28.3 µM
10 | O=C(N/C(=C\c1ccc([N+](=O)[O-])cc1)c1nc2ccc(Cl)cc2[nH]1)c1ccccc1 | > 100 µM | > 100 µM | – | 70.7 µM | 46.5 µM | – | –
11 | CC1Cc2c(N)nc(N3CCOCC3)nc2NC1=O (stereo unspecified) | > 100 µM | – | > 100 µM | – | – | – | –
12 | CC(C)c1cccc(C(C)C)c1N=C(N)C#N | > 59.2 µM | > 100 µM | > 100 µM | > 100 µM | > 100 µM | > 100 µM | –
13 | COc1ccc(-c2nc(N)c3ncn(C4OC(CO)C(O)C4O)c3n2)cc1 (stereo unspecified) | – | – | – | – | – | – | TGI [7]: > 100 µM
14 | COC1OC(CBr)C(OC(c2ccccc2)(c2ccccc2)c2ccccc2)C(OC(c2ccccc2)(c2ccccc2)c2ccccc2)C1OC(c1ccccc1)(c1ccccc1)c1ccccc1 (stereo unspecified) | – | – | – | – | – | – | TGI [7]: > 100 µM
15 | C[C@@H](NC1CCC[C@@H]1O)c1ccccc1 (stereo partly specified) | > 100 µM | > 100 µM | > 100 µM | > 100 µM | > 100 µM | – | –
16 | CCCC1C(=O)C(CC)Cc2c(OC)ccc(OC)c21 (stereo unspecified) | – | > 100 µM | – | > 100 µM | > 100 µM | > 100 µM | –
17 | C[Si](C)(C)/C=C\CCCN1C(=O)CCC1=O | > 100 µM | > 100 µM | – | > 100 µM | > 100 µM | > 100 µM | –
18 | Cc1ccc(C(=O)CCC2C(=O)CC(C)(C)CC2=O)cc1 | – | – | – | – | – | – | TGI [7]: > 100 µM
19 | CC(=O)NC1C(OCc2ccccc2)OC(COC(=O)CCCCCNc2ccc([N+](=O)[O-])c3[nH]c4ccc(O)cc4c(=O)c23)C(O)C1OC(C)C(=O)N[C@@H](C)C(=O)N[C@H](CCC(=O)OCc1ccccc1)C(N)=O (stereo partly specified) | – | 16.3 µM | 10.6 µM | 3.85 µM | – | 5.35 µM | –
20 | O=S1c2ccccc2N=C(c2ccc(Cl)cc2)CC1c1cccs1 (stereo unspecified) | 39.5 µM | > 100 µM | 71.1 µM | – | – | – | –
21 | CC1=C(/C=C/C2=CC(=C\C(=O)O)/CC(C3=C(C)CCCC3(C)C)C2)C(C)(C)CCC1 (stereo unspecified) | 23 µM | 41.2 µM | 27 µM | 26.8 µM | 27.4 µM | 24.7 µM | –

Row | SMILES | TGI [1] | TGI [2] | TGI [3] | TGI [4] | TGI [5] | TGI [6] | other results
22 | CCOC(=O)C#Cc1ccc([N+](=O)[O-])cc1 | – | – | – | – | – | – | TGI [7]: 10.5 µM
23 | COc1ccc(C(=O)C(Br)C(Br)C(=O)O)cc1 (stereo unspecified) | – | – | – | – | – | – | TGI [7]: > 100 µM
24 | COc1cc2ccnc3c2c(c1OC)CC1CC(O)C(OC)CC31 (stereo unspecified) | > 100 µM | > 100 µM | > 100 µM | > 100 µM | > 100 µM | – | –
25 | O=C1NC(=O)C(=O)C(c2nc3ccccc3s2)C1=O | > 100 µM | > 100 µM | > 100 µM | > 100 µM | > 100 µM | – | –
26 | CC1=C2C(=O)C(C)(C)C=C2C(=O)[C@](C)(O)C12CC2 | – | > 1 µM | > 1 µM | > 1 µM | > 1 µM | – | –
27 | CCOC(=O)/C(C#N)=C\C=C1/C=CNC2=NCCN21 | > 100 µM | > 100 µM | > 100 µM | > 100 µM | > 100 µM | – | –
28 | O=C(c1cc2c(C(F)(F)F)onc2c2ccccc12)C(F)(F)F | 10.9 µM | 3.82 µM | > 100 µM | > 47 µM | – | 80.1 µM | –
29 | CN(C1=NS(=O)(=O)N=C(N(C)c2ccccc2)O1)c1ccccc1 | – | – | – | – | – | – | TGI [7]: 32.6 µM
30 | CCN(CC)CCOC(=O)/C(=C/c1ccc(OC)cc1)c1cc(OC)c(OC)c(OC)c1 | 22.2 µM | > 100 µM | > 100 µM | 23.1 µM | – | > 100 µM | –
31 | CC(C)Cc1ccc(C(C)/C=C2\CCC(CN3CCCC3)C2=O)cc1 (stereo unspecified) | 12.2 µM | 42.5 µM | 33.4 µM | 4.77 µM | 22 µM | 49.9 µM | –
32 | N#CC(C(=O)CCC(=O)Nc1ccc(Cl)cc1)c1ccccc1Cl (stereo unspecified) | > 100 µM | > 100 µM | – | > 100 µM | > 100 µM | > 100 µM | –
33 | c1ccc2c(c1)nnn2CNc1ccc(N2CCOCC2)cc1 | > 100 µM | > 100 µM | > 100 µM | > 100 µM | > 100 µM | – | –
34 | CCCCCCCC(=O)OCC1OC(n2cc(F)c(=O)[nH]c2=O)C(NC(=O)OCc2ccccc2)C(OC(=O)CCCCCCC)C1O (stereo unspecified) | > 100 µM | > 100 µM | – | > 100 µM | – | – | –
35 | Cc1ccc(NC(=O)CC/C(CC(=O)c2ccc(Cl)cc2)=N\NC(=O)C(=O)NN)cc1C | > 100 µM | > 100 µM | > 100 µM | > 100 µM | > 100 µM | – | –
36 | NNC(=O)CCC(=O)Nc1ccc(Cl)cc1Cl | > 100 µM | > 100 µM | – | > 100 µM | > 100 µM | > 100 µM | –
37 | CC(=O)O[C@H]1CCC2[C@@H]3CCC4Nc5c(cnn5-c5ccccc5)C[C@]4(C)C3CC[C@@]21C (stereo partly specified) | 58.3 µM | 63.4 µM | 86.5 µM | 58.5 µM | 18.8 µM | 42.2 µM | –
38 | NCC1OC(n2cnc3c(=O)[nH]c(N)nc32)C(O)C1O (stereo unspecified) | – | – | – | – | – | – | TGI [7]: > 100 µM
39 | S=P(c1ccccc1)(c1ccccc1)C1(C2(P(=S)(c3ccccc3)c3ccccc3)CC2)CC1 | > 100 µM | > 100 µM | – | > 100 µM | > 100 µM | > 100 µM | –
40 | COC1CC2C=CC3C4OC2(/C(C)=C/C(C)C(C(C)O)OC1=O)C3C(O)C(C)C4OC(=O)c1ccc[nH]1 (stereo unspecified) | – | – | – | – | – | – | TGI [7]: > 100 µM
41 | O=C(COc1ccc(Cl)cc1)N1N=C(c2ccc([N+](=O)[O-])o2)CC1(O)c1ccccc1 (stereo unspecified) | – | 37.6 µM | – | – | 22.3 µM | 24.9 µM | –
42 | CN(C)Cc1cccc(CN(C)C)[c]1[Sn]([Br])([c]1ccccc1)[c]1ccccc1 | – | – | – | – | – | – | GI50 [7]: 16.6 µM; TGI [7]: 38.8 µM
